Experiments:
[1] = BALLETS phase III clinical study: adverse event profile in subgroups of baseline endotrophin; assay type: in vivo, subjects with type 2 diabetes on stable insulin therapy
Source text: Testing Strategies) study was a phase III, randomized, double-blind, parallel-group, placebo and active comparator-controlled clinical study to determine the efficacy and safety of six months' treatment of balaglitazone or pioglitazone in subjects with type 2 diabetes on stable insulin therapy. The baseline demographics, CONSORT diagram as well as efficacy and safety data have previously been published (Henriksen, 2011). In the current study we used the per protocol population of the BALLETS study, which consisted of 299 subjects spread evenly over four groups (placebo, two doses of balaglitazone, and one dose of piogliatazone) as previously described (Henriksen, 2011), all with baseline and up to six follow-up parameters related to blood sugar control and Pro-C6 determinations under therapy.
The analysis included subjects from the per protocol population having a baseline measurement of serum Pro-C6. Subjects were grouped into one of three tertiles based on their baseline Pro-C6 value. Tertile 1 included subjects with baseline serum Pro-C6 of 6.2 ng/mL or below; tertile 2 had baseline serum Pro-C6 of 6.3 ng/mL to 7.7 ng/mL, and tertile 3 had baseline serum Pro-C6 of 7.8 ng/mL or above. Baseline characteristics between the three subgroups were compared by analysis of variance (ANOVA), and comparison of the proportion of genders in each tertile was compared by Fisher's exact test.
Lower leg edema, when measured as volume increase due to water displacement, was correlated with baseline serum endotrophin tertiles. Glitazone therapy led to increased lower leg volume in the lower and middle tertile, while there were no differences between treatment and placebo groups in the upper tertile (FIG. 12A-12C). There were no significant differences in the occurrence of AEs or SAEs in the three different treatment groups when stratified according to endotrophin levels. The difference between the SAEs in Table 10 and the lower leg oedema reported in FIGS. 12A-12C is a function of the lower leg volume being a quantitative measure and the reporting of oedemas being a patient reported output (FIGS. 10A-10C).

[2] = tested on: around 10 kD bands in human serum and amniotic fluid; test: Western blot of human serum and amniotic fluid; assay type: binding; conditions: FIG. 2B
Experimental: Native reactivity of the chosen antibody was assessed using human serum pool and human amniotic fluid pool.

[3] = Tertile 1 baseline endotrophin, Balaglitazone 10 mg, n = 27
[4] = Tertile 1 baseline endotrophin, Balaglitazone 20 mg, n = 22
[5] = Tertile 2 baseline endotrophin, Balaglitazone 10 mg, n = 21
[6] = Tertile 2 baseline endotrophin, Balaglitazone 20 mg, n = 21
[7] = Tertile 3 baseline endotrophin, Balaglitazone 10 mg, n = 25
[8] = Tertile 3 baseline endotrophin, Balaglitazone 20 mg, n = 25
[9] = Tertile 1 baseline endotrophin, Pioglitazone 45 mg, n = 24
[10] = Tertile 2 baseline endotrophin, Pioglitazone 45 mg, n = 29
[11] = Tertile 3 baseline endotrophin, Pioglitazone 45 mg, n = 31

around 10 kD bands in human serum and amniotic fluid, sequence (P12111 3112-3177 limits assumed): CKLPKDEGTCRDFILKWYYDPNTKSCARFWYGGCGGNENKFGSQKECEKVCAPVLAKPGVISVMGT

Cn1c(COc2ccc(CC3SC(=O)NC3=O)cc2)nc2ccccc2c1=O (stereo not drawn) [Balaglitazone, balaglitazone]
All AEs, E [1, 3]: 38 | All AEs, N (%) [1, 3]: 20 (74%) N (%) | Serious AEs, E [1, 3]: 1 | Serious AEs, N (%) [1, 3]: 1 (4%) N (%) | Severe AEs: Cardiac ischaemia, E [1, 3]: 0 | Severe AEs: Cardiac ischaemia, N (%) [1, 3]: 0 (0%) N (%) | Severe AEs: Heart failure, E [1, 3]: 0 | Severe AEs: Heart failure, N (%) [1, 3]: 0 (0%) N (%) | Severe AEs: Peripheral oedema, E [1, 3]: 2 | Severe AEs: Peripheral oedema, N (%) [1, 3]: 2 (7%) N (%) | Total severe AEs, E [1, 3]: 2 | Total severe AEs, N (%) [1, 3]: 2 (7%) N (%) | All AEs, E [1, 4]: 33 | All AEs, N (%) [1, 4]: 17 (77%) N (%) | Serious AEs, E [1, 4]: 1 | Serious AEs, N (%) [1, 4]: 1 (5%) N (%) | Severe AEs: Cardiac ischaemia, E [1, 4]: 2 | Severe AEs: Cardiac ischaemia, N (%) [1, 4]: 2 (9%) N (%) | Severe AEs: Heart failure, E [1, 4]: 0 | Severe AEs: Heart failure, N (%) [1, 4]: 0 (0%) N (%) | Severe AEs: Peripheral oedema, E [1, 4]: 2 | Severe AEs: Peripheral oedema, N (%) [1, 4]: 2 (9%) N (%) | Total severe AEs, E [1, 4]: 4 | Total severe AEs, N (%) [1, 4]: 4 (18%) N (%) | All AEs, E [1, 5]: 35 | All AEs, N (%) [1, 5]: 17 (81%) N (%) | Serious AEs, E [1, 5]: 1 | Serious AEs, N (%) [1, 5]: 1 (5%) N (%) | Severe AEs: Cardiac ischaemia, E [1, 5]: 1 | Severe AEs: Cardiac ischaemia, N (%) [1, 5]: 1 (5%) N (%) | Severe AEs: Heart failure, E [1, 5]: 0 | Severe AEs: Heart failure, N (%) [1, 5]: 0 (0%) N (%) | Severe AEs: Peripheral oedema, E [1, 5]: 3 | Severe AEs: Peripheral oedema, N (%) [1, 5]: 3 (14%) N (%) | Total severe AEs, E [1, 5]: 4 | Total severe AEs, N (%) [1, 5]: 4 (19%) N (%) | All AEs, E [1, 6]: 36 | All AEs, N (%) [1, 6]: 15 (71%) N (%) | Serious AEs, E [1, 6]: 0 | Serious AEs, N (%) [1, 6]: 0 (0%) N (%) | Severe AEs: Cardiac ischaemia, E [1, 6]: 0 | Severe AEs: Cardiac ischaemia, N (%) [1, 6]: 0 (0%) N (%) | Severe AEs: Heart failure, E [1, 6]: 0 | Severe AEs: Heart failure, N (%) [1, 6]: 0 (0%) N (%) | Severe AEs: Peripheral oedema, E [1, 6]: 2 | Severe AEs: Peripheral oedema, N (%) [1, 6]: 2 (10%) N (%) | Total severe AEs, E [1, 6]: 2 | Total severe AEs, N (%) [1, 6]: 2 (10%) N (%) | All AEs, E [1, 7]: 55 | All AEs, N (%) [1, 7]: 20 (60%) N (%) | Serious AEs, E [1, 7]: 1 | Serious AEs, N (%) [1, 7]: 1 (4%) N (%) | Severe AEs: Cardiac ischaemia, E [1, 7]: 0 | Severe AEs: Cardiac ischaemia, N (%) [1, 7]: 0 (0%) N (%) | Severe AEs: Heart failure, E [1, 7]: 0 | Severe AEs: Heart failure, N (%) [1, 7]: 0 (0%) N (%) | Severe AEs: Peripheral oedema, E [1, 7]: 1 | Severe AEs: Peripheral oedema, N (%) [1, 7]: 1 (8%) N (%) | Total severe AEs, E [1, 7]: 1 | Total severe AEs, N (%) [1, 7]: 1 (8%) N (%) | All AEs, E [1, 8]: 43 | All AEs, N (%) [1, 8]: 20 (60%) N (%) | Serious AEs, E [1, 8]: 6 | Serious AEs, N (%) [1, 8]: 6 (24%) N (%) | Severe AEs: Cardiac ischaemia, E [1, 8]: 1 | Severe AEs: Cardiac ischaemia, N (%) [1, 8]: 1 (4%) N (%) | Severe AEs: Heart failure, E [1, 8]: 0 | Severe AEs: Heart failure, N (%) [1, 8]: 0 (0%) N (%) | Severe AEs: Peripheral oedema, E [1, 8]: 1 | Severe AEs: Peripheral oedema, N (%) [1, 8]: 1 (4%) N (%) | Total severe AEs, E [1, 8]: 2 | Total severe AEs, N (%) [1, 8]: 2 (8%) N (%)

CCc1ccc(CCOc2ccc(CC3SC(=O)NC3=O)cc2)nc1 (stereo not drawn) [Pioglitazone, pioglitazone]
All AEs, E [1, 9]: 45 | All AEs, N (%) [1, 9]: 19 (79%) N (%) | Serious AEs, E [1, 9]: 1 | Serious AEs, N (%) [1, 9]: 1 (4%) N (%) | Severe AEs: Cardiac ischaemia, E [1, 9]: 0 | Severe AEs: Cardiac ischaemia, N (%) [1, 9]: 0 (0%) N (%) | Severe AEs: Heart failure, E [1, 9]: 0 | Severe AEs: Heart failure, N (%) [1, 9]: 0 (0%) N (%) | Severe AEs: Peripheral oedema, E [1, 9]: 5 | Severe AEs: Peripheral oedema, N (%) [1, 9]: 5 (21%) N (%) | Total severe AEs, E [1, 9]: 5 | Total severe AEs, N (%) [1, 9]: 5 (21%) N (%) | All AEs, N (%) [1, 10]: 17 (59%)^ N (%) | Serious AEs, E [1, 10]: 3 | Serious AEs, N (%) [1, 10]: 2 (6%) N (%) | Severe AEs: Cardiac ischaemia, E [1, 10]: 1 | Severe AEs: Cardiac ischaemia, N (%) [1, 10]: 1 (3%) N (%) | Severe AEs: Heart failure, E [1, 10]: 0 | Severe AEs: Heart failure, N (%) [1, 10]: 0 (0%) N (%) | Severe AEs: Peripheral oedema, E [1, 10]: 5 | Severe AEs: Peripheral oedema, N (%) [1, 10]: 5 (17%) N (%) | Total severe AEs, E [1, 10]: 6 | Total severe AEs, N (%) [1, 10]: 5 (17%) N (%) | All AEs, N (%) [1, 11]: 25 (81%)^ N (%) | Serious AEs, E [1, 11]: 6 | Serious AEs, N (%) [1, 11]: 4 (13%) N (%) | Severe AEs: Cardiac ischaemia, E [1, 11]: 4 | Severe AEs: Cardiac ischaemia, N (%) [1, 11]: 3 (10%) N (%) | Severe AEs: Heart failure, E [1, 11]: 1 | Severe AEs: Heart failure, N (%) [1, 11]: 1 (3%) N (%) | Severe AEs: Peripheral oedema, E [1, 11]: 2 | Severe AEs: Peripheral oedema, N (%) [1, 11]: 2 (6%) N (%) | Total severe AEs, E [1, 11]: 7 | Total severe AEs, N (%) [1, 11]: 6 (19%) N (%)

B1: 10A3: mouse IgG1/kappa monoclonal antibody against the last 10 amino acids of C-terminal COL6A3 (…); heavy chain SEQ ID NO:5, light chain SEQ ID NO:9 (antibody)
heavy: EVQLQQSGPVMVKPGTSVKTSCKASGYTFTDFNMNWVKQSHGKSLEWIGAINPHNGATSYNQKFSGKATLTVDKSSSTAYMELNSLTSDDSAVYYCARWGNGKNSWGQGTTLTVSSAKTTPPSVYPLAPGSAAQTNSMVTLGCLVKGYFPEPVTVTWNSGSLSSGVHTFPAVLQSDLYTLSSSVTVPSSTWPSETVTCNVAHPASSTKVDKKIVPRDCGCKPCICTVPEVSSVFIFPPKPKDVLTITLTPKVTCVVVDISKDDPEVQFSWFVDDVEVHTAQTQPREEQFNSTFRSVSELPIMHQDWLNGKEFKCRVNSAAFPAPIEKTISKTKGRPKAPQVYTIPPPKEQMAKDKVSLTCMITDFFPEDITVEWQWNGQPAENYKNTQPIMDTDGSYFVYSKLNVQKSNWEAGNTFTCSVLHEGLHNHHTEKSLSHSPGK
light: DVVMTQTPLSLPVNLGDQASISCRSSQRIVHSNGITFLEWYLQKPGQSPKLLIYRVSNRFSGVPDRFSGSGSGTDFTLKISRVEAEDLGLYYCFQGSHVPLTFGAGTRLELKRADAAPTVSIFPPSSEQLTSGGASVVCFLNNFYPKDINVKWKIDGSERQNGVLNSWTDQDSKDSTYSMSSTLTLTKDEYERHNSYTCEATHKTSTSPIVKSFNRNEC
modifications: Heavy chain sequence of mouse IgG1 isotype of monoclonal antibody 10A3; Light chain sequence of mouse Kappa isotype of monoclonal antibody 10A3
western blot signal in the presence of the standard peptide [2]: completely blocked | bands recognized in western blot ([2]; human serum and amniotic fluid): around 10 kD

Reference: patent US11634479B2, “Immunoassay for collagen type VI” (Nordic Bioscience A/S, priority 2015, dated 2023)
